The values below are quoted from earlier work in patent US20200316037A1, “COMPOSITIONS AND METHODS FOR TREATING NEOPLASIA” (THE ANGIOGENESIS FOUNDATION, priority 2017, published 2020).

Where two headings read alike, the source gives them in different places.

The subject of data set [1] is superficial Basal Cell Carcinoma (sBCC). To be noted: two double-blind vehicle-controlled studies; 5x/week x 6 weeks.
A further data set relates to BCC. To be noted: imiquimod open-label clinical study N=162.
The conditions of data set [2]: for Undesirable Local Reactions (combined itching, burning, bleeding, stinging, pain/soreness, tenderness, irritation): monotherapy; for Undesirable Local Reactions (combined stinging, burning, itching, or irritation/dermatitis/rash): monotherapy at normal concentration and standard dose frequency.

With `CC(C)Cn1cnc2c(N)nc3ccccc3c21` [Imiquimod 5%, Imiquimod], in data set [1], the sBCC clearance is reported as 75%. Further, the “Recurrence Rate of BCC” value with BCC (Month 0) is reported as 10%; in the data set with BCC (Month 3) it was 13%; in the data set with BCC (Month 6) it was 15%; in the data set on BCC (Month 12), 16%; with BCC (Month 24) it was 21%; with BCC (Post-treatment) it was 0%. Besides, the entries for the “Undesirable Local Reactions (combined itching, burning, bleeding, stinging, pain/soreness, tenderness, irritation)” value in data set [2] (2x/week study), in data set [2] (3x/week study) and in data set [2] (5x/week study) were 39%, 63% and 28%, respectively. Moreover, in data set [2] (monotherapy per package label, imiquimod clinical studies), the Incidence of inflammation was at most 97%.

As for `CC1=C(/C=C/C(C)=C/C=C/C(C)=C/C(=O)O)C(C)(C)CCC1` [Tretinoin 0.1%, Tretinoin], the “Undesirable Local Reactions (combined stinging, burning, itching, or irritation/dermatitis/rash)” value in data set [2] is 15%.

As to `C=C1/C(=C\C=C2/CCC[C@]3(C)[C@@H]([C@H](C)/C=C/[C@@H](O)C4CC4)CC[C@@H]23)C[C@@H](O)C[C@@H]1O` [Calcipotriene 0.005%, Calcipotriene], the “Undesirable Local Reactions (combined stinging, burning, itching, or irritation/dermatitis/rash)” value in data set [2] is given as 13-45%.

As to `CCCCC(=O)O[C@]1(C(=O)CO)CC[C@H]2[C@@H]3CCC4=CC(=O)CC[C@]4(C)[C@H]3[C@@H](O)C[C@@]21C` [Hydrocortisone valerate 0.2%, Hydrocortisone valerate], in data set [2], the “Undesirable Local Reactions (combined stinging, burning, itching, or irritation/dermatitis/rash)” value is 7%.
